Results: ChEMBL document CHEMBL6182880, “TCM theory-inspired discovery of DNJ-flavonoid conjugates as broad-spectrum anti-SARS-CoV-2 agents by primarily targeting ER-associated glycoprotein folding process” (Eur J Med Chem, 2025)
pEC50: −log10 of the molar value.

Key:
Format in all cases: functional, organism-based
SARS-CoV-2 [1] = test: Antiviral activity against SARS CoV-2 pseudovirus transfected in HEK293 cells harboring pLenti-GFP-Luc assessed as inhibition of viral entry into HeLa-ACE2 cells treated 1 to 6 hrs post-infection and measured after 48 hrs by luciferase assay; details: Severe acute respiratory syndrome coronavirus 2
SARS-CoV-2 [2] = test: Antiviral activity against SARS CoV-2 pseudovirus transfected in HEK293 cells harboring pLenti-GFP-Luc assessed as inhibition of viral entry into HeLa-ACE2 cells treated for 12 hrs prior to media replacement and measured after 48 hrs by luciferase assay; details: Severe acute respiratory syndrome coronavirus 2, HeLa-ACE2
SARS-CoV-2 [3] = test: Antiviral activity against SARS CoV-2 pseudovirus transfected in HEK293 cells harboring pLenti-GFP-Luc assessed as inhibition of viral entry into HeLa-ACE2 cells incubated with cells for 1 to 2 hrs prior to viral infection and measured after 48 hrs by luciferase assay; details: Severe acute respiratory syndrome coronavirus 2, HeLa-ACE2
SARS-CoV-2 [4] = test: Antiviral activity against SARS CoV-2 pseudovirus transfected in HEK293 cells harboring pLenti-GFP-Luc assessed as inhibition of viral packing process treated from 12 to 48 hrs post-transfection by luciferase assay; details: Severe acute respiratory syndrome coronavirus 2, HeLa-ACE2
SARS-CoV-2 [5] = test: Antiviral activity against SARS CoV-2 pseudovirus transfected in HEK293 cells harboring pLenti-GFP-Luc assessed as inhibition of viral packing process by luciferase assay; details: Severe acute respiratory syndrome coronavirus 2; HeLa-ACE2; time 48.0 hrs

Compound: O=c1cc(-c2ccc(O)c(O)c2)oc2cc(O)cc(OCCCCCCCCCCN3C[C@H](O)[C@@H](O)[C@H](O)[C@H]3CO)c12
- inhibition (SARS-CoV-2 [1]): Not active; Delay Of Time Of Addition Exerted A Time-Dependent Decrease In Viral Entry Inhibition
- pEC50 (SARS-CoV-2 [2]): 5.29
- pEC50 (SARS-CoV-2 [3]): 5.12
- pEC50 (SARS-CoV-2 [4]): 5.12
- inhibition (SARS-CoV-2 [5]): Time-dependent-effect
